# Test results published in patent publication US20060069132A1, “Azolecarboxamide herbicides” (priority 2004, published 2006).
# What was measured:
# Surinam grass = test: Test C pre-/postemergence herbicide test; format: in vivo, Urochloa decumbens; conditions: preemergence; for Plant response rating (0 = no effect, 100 = complete control), Surinam Grass: 125 g ai/ha
# Summary of the method: (§1)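 Emerged plants at the 1- to 4-leaf stage (2–18 cm), or freshly planted seeds, received test chemicals in a non-phytotoxic solvent mixture with surfactant. Response was visually scored against controls after 12 to 14 days in the greenhouse, on a 0 (no effect) to 100 (complete control) scale.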
# cocklebur = test: Test C pre-/postemergence herbicide test; format: in vivo, Xanthium strumarium; conditions: preemergence; for Plant response rating (0 = no effect, 100 = complete control), Cocklebur: 125 g ai/ha
# Summary of the method: as §1
# giant foxtail = test: Test C pre-/postemergence herbicide test; format: in vivo, Setaria faberi; conditions: preemergence; for Plant response rating (0 = no effect, 100 = complete control), Foxtail, Giant: 125 g ai/ha
# Summary of the method: as §1
# johnsongrass = test: Test C pre-/postemergence herbicide test; format: in vivo, Sorghum halepense; conditions: preemergence; for Plant response rating (0 = no effect, 100 = complete control), Johnsongrass: 125 g ai/ha
# Summary of the method: as §1
# morningglory = test: Test C pre-/postemergence herbicide test; format: in vivo, Ipomoea coccinea; parameters: key to Plant response rating, Morningglory: 0 = no effect, 100 = complete control; conditions: preemergence; for Plant response rating (0 = no effect, 100 = complete control), Morningglory: 125 g ai/ha
# Summary of the method: as §1
# eastern black nightshade = test: Test C pre-/postemergence herbicide test; format: in vivo, Solanum ptycanthum; conditions: preemergence; for Plant response rating (0 = no effect, 100 = complete control), Nightshade: 125 g ai/ha
# Summary of the method: as §1
# yellow nutsedge = test: Test C pre-/postemergence herbicide test; format: in vivo, Cyperus esculentus; conditions: preemergence; for Plant response rating (0 = no effect, 100 = complete control), Nutsedge, Yellow: 125 g ai/ha
# Summary of the method: as §1
# ducksalad = test: Test C flooded paddy test; format: in vivo, Heteranthera limosa; conditions: for Plant response rating, Ducksalad: 500 g ai/ha, visual rating after 12 to 14 days
# barnyardgrass = test: Test C flooded paddy test; format: in vivo, Echinochloa crus-galli; conditions: for Plant response rating, Barnyardgrass: 500 g ai/ha, visual rating after 12 to 14 days
# Summary of the method: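 Weeds and wheat were sprayed after emergence, at a height of 2 to 18 cm (1–4 leaves), and paddy barnyardgrass was flooded and treated at two leaves. Assessment took place 12–14 days later in the greenhouse on a 0-to-100 visual control scale. A dash means no result was obtained.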
# [1] = 500 g ai/ha, scale 0 to 100 (0 no effect, 100 complete control), visual, 12 to 14 days
# [2] = 125 g ai/ha, scale 0 to 100 (0 no effect, 100 complete control)
# [3] = 250 g ai/ha, scale of 0 to 100, 0 is no effect, 100 is complete control
# [4] = scale 0 to 100 (0 no effect, 100 complete control)
# [5] = 62 g ai/ha, scale 0 to 100 (0 no effect, 100 complete control)
Compound,"Plant response rating, Surinam Grass (Surinam grass; 62 g ai/ha, scale 0 to 100)","Plant response rating (0 = no effect, 100 = complete control), Surinam Grass (Surinam grass)","Plant response rating, Surinam Grass (Surinam grass; [1])","Plant response rating, Cocklebur (cocklebur; 62 g ai/ha, scale 0 to 100)","Plant response rating (0 = no effect, 100 = complete control), Cocklebur (cocklebur)","Plant response rating, Cocklebur (cocklebur; 250 g ai/ha, scale 0-100)","Plant response rating, Cocklebur (cocklebur; [1])","Plant response rating, Foxtail, Giant (giant foxtail; 62 g ai/ha, scale 0 to 100)","Plant response rating (0 = no effect, 100 = complete control), Foxtail, Giant (giant foxtail)","Plant response rating, Foxtail, Giant (giant foxtail; 250 g ai/ha, scale 0-100)","Plant response rating, Foxtail, Giant (giant foxtail; [1])","Plant response rating, Johnsongrass (johnsongrass; 62 g ai/ha, scale 0 to 100)","Plant response rating (0 = no effect, 100 = complete control), Johnsongrass (johnsongrass)","Plant response rating, Johnsongrass (johnsongrass; 250 g ai/ha, scale 0-100)","Plant response rating, Johnsongrass (johnsongrass; [1])","Plant response rating, Morningglory (morningglory; 62 g ai/ha, scale 0 to 100)","Plant response rating (0 = no effect, 100 = complete control), Morningglory (morningglory)","Plant response rating, Morningglory (morningglory; [1])","Plant response rating, Nightshade (eastern black nightshade; 62 g ai/ha, scale 0 to 100)","Plant response rating (0 = no effect, 100 = complete control), Nightshade (eastern black nightshade)",further results
Cc1nn(C(C)(C)C)nc1C(=O)Nc1cccc(C(=O)N(C)C)c1 [Compound 391],85,95,95,20,45,80,80,85,100,100,100,100,100,100,100,100,100,100,90,95,"Plant response rating, Surinam Grass (Surinam grass; 250 g ai/ha, scale 0-100): 95; Plant response rating, Morningglory (morningglory; 250 g ai/ha, scale 0-100): 100; Plant response rating, Nightshade (eastern black nightshade; 250 g ai/ha, scale 0-100): 95; Plant response rating, Nightshade (eastern black nightshade; [1]): 95; Plant response rating, Nutsedge, Yellow (yellow nutsedge; 62 g ai/ha, scale 0 to 100): 5; Plant response rating (0 = no effect, 100 = complete control), Nutsedge, Yellow (yellow nutsedge): 70; Plant response rating, Nutsedge, Yellow (yellow nutsedge; 250 g ai/ha, scale 0-100): 90; Plant response rating, Nutsedge, Yellow (yellow nutsedge; [1]): 90; Ducksalad plant response rating (ducksalad; 62 g ai/ha, scale 0 to 100): 85; Ducksalad plant response rating (ducksalad; [2]): 85; Ducksalad plant response rating (ducksalad; [3]): 85; Plant response rating, Ducksalad (ducksalad; [4]): 95; Barnyardgrass plant response rating (barnyardgrass; [5]): 55; Barnyardgrass plant response rating (barnyardgrass; [2]): 85; Barnyardgrass plant response rating (barnyardgrass; [3]): 90; Plant response rating, Barnyardgrass (barnyardgrass; [4]): 95"
CCNC(=O)c1ccc(F)c(N(C(C)=O)C(=O)c2cc(C(C)(C)C)nn2CC)c1 [Compound 399],95,95,100,15,65,70,80,95,100,100,100,95,100,100,100,15,25,75,95,100,"Plant response rating, Nightshade (eastern black nightshade; [1]): 100; Plant response rating, Nutsedge, Yellow (yellow nutsedge; 62 g ai/ha, scale 0 to 100): 45; Plant response rating (0 = no effect, 100 = complete control), Nutsedge, Yellow (yellow nutsedge): 75; Plant response rating, Nutsedge, Yellow (yellow nutsedge; [1]): 95; Ducksalad plant response rating (ducksalad; 62 g ai/ha, scale 0 to 100): 75; Ducksalad plant response rating (ducksalad; [2]): 75; Ducksalad plant response rating (ducksalad; [3]): 85; Plant response rating, Ducksalad (ducksalad; [4]): 85; Barnyardgrass plant response rating (barnyardgrass; [5]): 50; Barnyardgrass plant response rating (barnyardgrass; [2]): 65; Barnyardgrass plant response rating (barnyardgrass; [3]): 85; Plant response rating, Barnyardgrass (barnyardgrass; [4]): 90"
